From patent US20220213119A1, “THIENOHETEROCYCLIC DERIVATIVE, PREPARATION METHOD THEREFOR AND MEDICAL USE THEREOF” (Jiangsu Hengrui Medicine Ca, Lid., priority 2019, published 2022)

Tests used:
ERK1 = biological target: T1, ERK1 (Homo sapiens, UniProt P27361); assay: ERK1 enzyme activity test (ADP-Glo Kinase Assay); format: biochemical; details: chemiluminescence
T1 construct: purchased R&D 1879-KS-010
Description: (§1) The purpose of this experiment is to detect the inhibitory ability of the compounds on the ERK1 enzyme activity and evaluate the activity of the compounds in vitro according to IC50. The ADP-Glo™ Kinase Assay Kit was used in this experiment. Under the action of enzyme, the substrate was phosphorylated and ADP was produced at the same time. The ADP-Glo Reagent was added to remove unreacted ATP in the reaction system. The kinase detection reagent was used to detect the ADP produced by the reaction. In the presence of the compound, the inhibition rate of the compound was calculated by measuring the signal value.
Enzyme and substrate preparation: ERK1 (1879-KS-010, R&D) and substrate (AS-61777, anaspec) were prepared to be 0.75 ng/μl and 100 μM respectively in the buffer. The enzyme solution and substrate solution were then prepared into a mixed solution at a volume ratio of 2:1 for later use. ATP was diluted to 300 μM with the buffer. The compounds were dissolved in DMSO (dimethyl sulfoxide, Shanghai Titan Scientific Co., Ltd.) to prepare a stock solution with an initial concentration of 20 mM, and then Bravo was used to prepare solutions of the compounds. Finally, a 3 μL of a mixed solution of enzyme and substrate, and 1 μL of different concentrations of the compound (the initial concentration is 50 μM, 4-fold dilution) were added to each well of the 384-well plate, and the plate was incubated at 30° C. for 10 minutes, and finally 1 μL of 300 μM ATP solution was added to each well, and the plate was incubated at 30° C. for 2 hours. Then 5 μL of ADP-Glo was added, and the plate was incubated at 30° C. for 40 minutes. Then 10 μL of Kinase detection buffer was added, and the plate was incubated at 30° C. for 40 minutes. The 384-well plate was taken out and placed in a microplate reader (BMG labtech, PHERAstar FS), and the chemiluminescence was measured by the microplate reader.
(§2) The data were processed and analyzed with Microsoft Excel, Graphpad Prism 5.

Colo205 cells = assay: In vitro proliferation inhibition test on Colo205 tumor cells (CellTiter-Glo); format: cell-based; details: Homo sapiens, COLO 205, 72 h; Colo205 cell proliferation, 3 days of culture, CTG
Description: The purpose of this experiment is to test the inhibitory activity of the compounds on the proliferation of Colo205 cells (CCL-222, ATCC) in vitro. The cells were treated with different concentrations of compounds in vitro. After 3 days of culture, the cell proliferation was detected using CTG (CellTiter-Glo® Luminescent Cell Viability Assay, Promega, catalog number: G7573) reagent. The in vitro activity of the compounds was evaluated according to the IC50 value.
In the following, taking the in vitro proliferation inhibition test method of Colo205 cells as an example, the method in the present disclosure for testing the in vitro proliferation inhibitory activity of the compounds of the present disclosure is described. This method is also applicable to, but not limited to, the in vitro proliferation inhibitory activity test on other tumor cells.
Colo205 cells were digested, centrifuged and then resuspended. The single cell suspension was mixed well, and the density of viable cells was adjusted to 5.0×10^4 cells/ml with cell culture medium (RPMI1640+2% FBS), and 95 μl/well was added to a 96-well cell culture plate. Only 100 μl medium was added to the peripheral wells of the 96-well plate. The culture plate was incubated in an incubator for 24 hours (37° C., 5% CO2).
The compound was dissolved in DMSO (dimethyl sulfoxide, Shanghai Titan Scientific Co., Ltd.) and prepared into a stock solution with an initial concentration of 20 mM. The initial concentration of the small molecule compound is 2 mM, and then 4-fold diluted into to 9 points, and the tenth point is DMSO. Another 96-well plate was taken, 90 μl of cell culture medium (RPMI1640+2% FBS) was added to each well, then 10 μl of different concentrations of the test sample was added to each well, the mixture was mixed well, and then 5 μl of different concentrations of the test sample was added to the cell culture plate, and each sample has two duplicate holes. The culture plate was incubated in the incubator for 3 days (37° C., 5% CO2). The 96-well cell culture plate was taken out, 50 μl CTG solution was added to each well, and the plate was incubated for 10 minutes at room temperature. In a microplate reader (BMG labtech, PHERAstar FS), chemiluminescence was measured with the microplate reader.
as §2

[1] = Pharmacokinetics assay in mice; format: in vivo; details: mouse, po, C57 mice (female), intragastric, 2 mg/kg, plasma; for Vd/F: read-out: Apparent distribution volume Vz/F; for AUC: read-out: Area under curve AUC; for CL/F: read-out: Clearance CLz/F; for half-life: read-out: Half Life T1/2 (converted); for Cmax: read-out: Plasma Concentration Cmax; for MRT: read-out: Residence Time MRT
Description: Mice were used as the test animal. The drug concentration in plasma at different time points was determined by LC/MS/MS method after administration of compound 3-P2, compound 4-P2, compound 9-P2, compound 10-P2, compound 12 and compound 15. The pharmacokinetic behavior of the compounds of the present disclosure in mice was studied, and the pharmacokinetic characteristics were evaluated.
54 of C57 mice (female) were equally divided into 6 groups, which were purchased from Shanghai Jiesijie Laboratory Animal Co., Ltd., with the animal production license number: SOCK (Shanghai) 2013-0006.
A certain amount of compound was weighted, followed by the addition of 5% volume of DMSO and 5% Tween 80 to dissolve it, then followed by the addition of 90% normal saline to prepare a colorless and clear solution of 0.1 mg/mL.
After an overnight fast, C57 mice were intragastrically administered the test compound at an administration dose of 2 mg/kg and an administration volume of 0.2 ml/10 g.
The mice were intragastrically administered the test compounds. 0.1mL of blood was taken before the administration and at 0.25, 0.5, 1.0, 2.0, 4.0, 6.0, 8.0, 11.0, 24.0 hours after the administration. The blood was placed in a heparinized test tube, and centrifuged at 3500 rpm for 10 minutes. The plasma was separated and stored at −20° C.
The content of the test compound in the plasma of mice after […] administration of the test compound at different concentrations was determined: 25 μl of mouse plasma at each time point after the administration was taken, followed by the addition of 50 μl of the internal standard camptothecin solution (100 ng/mL) and 200 μl of acetonitrile. The resulting solution was vortex-mixed for 5 minutes, and centrifuged for 10 minutes (4000 rpm). 4μl of the supernatant was taken from the plasma samples for LC/MS/MS analysis.

ERK2 = biological target: T2, ERK2 (Homo sapiens, UniProt P28482); assay: ERK2 enzyme activity test (ADP-Glo Kinase Assay); format: biochemical; details: chemiluminescence
T2 construct: purchased R&D 1230-KS-010
Description: as §1, with “ERK2” for “ERK1”
Enzyme and substrate preparation: ERK2 (1230-KS-010, R&D) and substrate (Custom peptides, Gill Biochemical) were prepared to be 0.75 ng/μl and 1500 μM in the buffer (40 mM Tris, 20 mM MgCl2, 0.1 mg/mL BSA, 50 μM DTT). The enzyme solution and substrate solution were then prepared into a mixed solution at a volume ratio of 2:1 for later use. ATP was diluted to 500 μM with the buffer. The compounds were dissolved in DMSO (dimethyl sulfoxide, Shanghai Titan Scientific Co., Ltd.) to prepare a stock solution with an initial concentration of 20 mM, and then Bravo was used to prepare solutions of the compounds. Finally, a 3 μL of a mixed solution of enzyme and substrate, and 1 μL of different concentrations of the compound (the initial concentration is 50 μM, 4-fold dilution) were added to each well of the 384-well plate, and the plate was incubated at 30° C. for 10 minutes, and finally 1 μL of 500 μM ATP solution was added to each well, and the plate was incubated at 30° C. for 2 hours. Then 5 μL of ADP-Glo was added, and the plate was incubated at 30° C. for 40 minutes. Then 10 μL of Kinase detection buffer was added, and the plate was incubated at 30° C. for 40 minutes. The 384-well plate was taken out and placed in a microplate reader (BMG labtech, PHERAstar FS), and the chemiluminescence was measured by the microplate reader.
as §2

T1 sequence (P27361 whole entry): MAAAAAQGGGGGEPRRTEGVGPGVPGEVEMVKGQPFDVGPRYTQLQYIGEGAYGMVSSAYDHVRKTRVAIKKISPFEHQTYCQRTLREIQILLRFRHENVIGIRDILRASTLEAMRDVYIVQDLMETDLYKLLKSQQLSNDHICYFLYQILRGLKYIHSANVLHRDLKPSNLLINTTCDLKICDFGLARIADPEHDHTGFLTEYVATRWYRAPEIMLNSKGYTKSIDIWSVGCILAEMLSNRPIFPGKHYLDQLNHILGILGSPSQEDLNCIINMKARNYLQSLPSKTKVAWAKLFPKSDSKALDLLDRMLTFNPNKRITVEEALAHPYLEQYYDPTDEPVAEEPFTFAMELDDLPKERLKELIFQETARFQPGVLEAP
T2 sequence (P28482 whole entry): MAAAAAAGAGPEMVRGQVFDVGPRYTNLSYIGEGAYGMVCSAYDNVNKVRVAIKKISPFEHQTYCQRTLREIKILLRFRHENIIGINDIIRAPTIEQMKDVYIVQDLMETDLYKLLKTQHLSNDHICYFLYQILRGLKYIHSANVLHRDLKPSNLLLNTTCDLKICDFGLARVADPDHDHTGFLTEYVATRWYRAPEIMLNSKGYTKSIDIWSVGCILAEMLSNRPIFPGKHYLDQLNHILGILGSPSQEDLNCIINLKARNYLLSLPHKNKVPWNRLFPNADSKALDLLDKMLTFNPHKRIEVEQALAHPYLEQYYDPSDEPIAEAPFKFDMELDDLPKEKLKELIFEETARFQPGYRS

SMILES | IC50 (ERK1) [nM] | IC50 (Colo205 cells) [nM] | Vd/F [1] [L/kg] | AUC [1] [ng·h/mL] | CL/F [1] [mL/min/kg] | half-life [1] [h] | Cmax [1] [ng/mL] | MRT [1] [h] | IC50 (ERK2) [nM]
COc1cc(F)cc([C@@H](CO)NC(=O)[C@@H](C)N2CCc3sc(-c4ccnc(Nc5ccnn5C)n4)cc3C2=O)c1 [Example 15, (R)-N-((S)-1-(3-Fluoro-5-methoxyphenyl)-2-hydroxyethyl)-2-(2-(2-((1-methyl-1H-pyrazol-5-yl)amino)pyrimidin-4-yl)-4-oxo-6,7-dihydrothieno[3,2-c]pyridin-5(4H)-yl)propionamide] | 4 | 49 | 1.76 | 1830 | 18.2 | 1.11 | 1070 | 1.85 | 3
COc1cc(F)cc([C@@H](CO)NC(=O)[C@@H](C)N2CCc3sc(-c4nc(Nc5ccnn5C)ncc4C)cc3C2=O)c1 [Example 10-P2, (R)-N-((S)-1-(3-Fluoro-5-methoxyphenyl)-2-hydroxyethyl)-2-(2-(5-methyl-2-((1-methyl-1 H-pyrazol-5-yl)amino)pyrimidin-4-yl)-4-oxo-6,7-dihydrothieno[3,2-c]pyridin-5(4H)-yl)pro pionamide] | 32 | 50 | 1.99 | 1830 | 18.2 | 1.26 | 1000 | 1.64 | 5
COc1cc(F)cc([C@@H](CO)NC(=O)[C@@H](C)N2CCc3sc(-c4nc(NC5CCOCC5)ncc4Cl)cc3C2=O)c1 [Example 9-P2, (R)-2-(2-(5-Chloro-2-((tetrahydro-2H-pyran-4-yl)amino)pyrimidin-4-yl)-4-oxo-6,7-dihydrothieno[3,2-c]pyridin-5(4H)-yl)-N-((S)-1-(3-fluoro-5-methoxyphenyl)-2-hydroxyethyl)prop ionamide] | 19 | 18 | 7.14 | 1820 | 18.4 | 4.49 | 1480 | 1.85 | 3
COc1cc(F)cc([C@@H](CO)NC(=O)[C@@H](C)N2CCc3sc(-c4nc(N[C@@H](C)CO)ncc4Cl)cc3C2=O)c1 [Example 12, (R)-2-(2-(5-Chloro-2-(((S)-1-hydroxypropan-2-yl)amino)pyrimidin-4-yl)-4-oxo-6,7-dihydrothieno[3,2-c]pyridin-5(4H)-yl)-N-((S)-1-(3-fluoro-5-methoxyphenyl)-2-hydroxyethyl)prop ionamide] | 24 | 5 | 4.77 | 1600 | 20.8 | 2.65 | 1480 | 1.05 | 2
